In one assay the test system is SU-DHL-4 cell lines. Description: Proliferation inhibition test, GCB-DLBCL cell line SU-DHL-4 (negative control line). The conditions noted are these: Homo sapiens; SU-DHL-4 (GCB-DLBCL, NF-κB pathway-independent, negative control); 96 hours; Cell Counting Kit-8; read-out: Proliferation inhibitory activity against SU-DHL-4 IC50. It is filed as cell-based. The method, then:
(§1) In ABC-DLBCL cell lines, the NF-κB pathway is constitutively activated due to mutations in the B-cell receptor pathway. To evaluate the proliferation inhibitory activity associated with the MALT1 inhibitory activity of the test substance, a proliferation inhibition test was conducted using ABC-DLBCL cell lines.
(§2) The test substance was prepared at a concentration of 10 mM in dimethyl sulfoxide (DMSO) and further diluted with DMSO to each of concentrations of 3,000, 1,000, 300, 100, 30, and 10 µM. The solutions were further diluted 100-fold with IMDM medium containing 10% FBS to prepare test substance solutions.
(§3) OCI-Ly3 cell lines (ABC-DLBCL, NF-κB pathway-dependent) were cultured in IMDM containing 10% FBS, and SU-DHL-4 cell lines (GCB-DLBCL, NF-κB pathway-independent, used as a negative control) were cultured in RPMI-1640 containing 10% FBS. Into a 96-well plate, 2,000 cells of the OCI-Ly3 cell line and 4,000 cells of the SU-DHL-4 cell line were seeded in 100 µL per well, and 11 µL of the adjusted test substance solution was added thereto (final concentrations: 10,000, 3,000, 1,000, 300, 100, 30, and 10 nM). After 96 hours of incubation at 37°C in a 5% CO2 incubator, 10 µL of Cell Counting Kit-8 (Dojindo Laboratories) was added to each well. After 4 hours of incubation at 37°C, absorbance at 450 nm was detected using a microplate reader (EnVision, PerkinElmer).
(§4) Using the measurement data, non-linear regression analysis based on a 2-parameter logistic model was performed with Spotfire (PerkinElmer) to estimate IC50 values.
A general note: Formazan colour is commonly taken as a measure of viable cells.

The subject of the next assay is OCI-Ly3 cell lines. As to the kind of experiment: Proliferation inhibition test, ABC-DLBCL cell line OCI-Ly3. Type of assay: cell-based. The conditions noted are these: Homo sapiens; OCI-Ly3 (ABC-DLBCL, NF-κB pathway-dependent); 96 hours; Cell Counting Kit-8; read-out: Proliferation inhibitory activity against OCI-Ly3 IC50. The method, then:
as §1, §2, §3, §4

Assay [1] has as its target T1, C-terminal catalytic domain of MALT1 (amino acid residues 329-824) (Homo sapiens, UniProt Q9UDY8).
T1 construct: C-terminal catalytic domain of MALT1 (amino acid residues 329-824)
T1 sequence (Q9UDY8 329-824): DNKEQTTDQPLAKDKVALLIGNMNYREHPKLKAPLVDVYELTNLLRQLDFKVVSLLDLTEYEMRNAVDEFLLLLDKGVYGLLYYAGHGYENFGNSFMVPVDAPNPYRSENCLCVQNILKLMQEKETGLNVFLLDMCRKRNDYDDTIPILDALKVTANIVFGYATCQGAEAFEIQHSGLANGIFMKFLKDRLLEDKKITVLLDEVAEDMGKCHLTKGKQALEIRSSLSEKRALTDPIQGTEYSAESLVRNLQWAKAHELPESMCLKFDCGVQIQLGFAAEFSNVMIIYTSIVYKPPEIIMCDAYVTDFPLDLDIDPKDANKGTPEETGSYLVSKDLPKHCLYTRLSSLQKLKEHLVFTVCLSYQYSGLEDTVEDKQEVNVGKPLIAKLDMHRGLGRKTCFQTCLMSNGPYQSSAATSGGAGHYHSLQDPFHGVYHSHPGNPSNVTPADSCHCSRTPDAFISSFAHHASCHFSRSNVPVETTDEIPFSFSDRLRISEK
Description: MALT1 protease inhibitory activity (enzyme activity inhibition assay, fluorogenic substrate). It is filed as biochemical. The conditions noted are these: substrate Ac-Leu-Arg-Ser-Arg-AMC 50 µM; 30°C for 2 hours; fluorescence. The method, then:
To evaluate the enzyme inhibitory activity of a test substance against MALT1, an enzyme activity inhibition assay was conducted using the C-terminal catalytic domain of MALT1 (amino acid residues 329-824).
A test substance was prepared at a concentration of 10 mM in dimethyl sulfoxide (DMSO) and further diluted with DMSO to obtain final concentrations of 1000, 100, 10, 1, and 0.1 µM. The solutions were further diluted 25-fold with an assay buffer to prepare final test substance solutions. The composition of the assay buffer was 200 mM Tris/HCl HEPES (pH 7.5), 0.8 M Na citrate, 100 µM DTT, and 0.05% CHAPS.
The test substance solution was added to a 384-well black plate (#6007270, PerkinElmer) in an amount of 5 µL per well (n = 2; final concentrations of 10000, 1000, 100, 10, 1, and 0.1 nM), followed by the addition of 10 µL of MALT1 enzyme and finally 5 µL of a substrate solution (Ac-Leu-Arg-Ser-Arg-AMC, Peptide Institute, Inc.; final concentration in the reaction mixture: 50 µM), and after stirring, the mixture was allowed to react at 30°C for 2 hours. Fluorescence (excitation: 380 nm, emission: 460 nm) was detected using a microplate reader (EnVision, PerkinElmer).
Using the measurement data, non-linear regression analysis based on a 2-parameter logistic model was performed with Spotfire (PerkinElmer) to calculate IC50.

Assay [2] relates to HEK293/API2-MALT1/NF-κB reporter cells. As to the kind of experiment: Inhibition of reporter activity in HEK293/API2-MALT1/NF-κB reporter cells. Type of assay: cell-based. Conditions: Homo sapiens, 24 hours with test substance, One-glo luminescence. The method, then: The API2-MALT1 fusion protein, expressed in MALT lymphoma, is known to constitutively activate the NF-κB pathway. To evaluate the inhibitory effect of the test substance on the NF-κB pathway in cells, a reporter activity inhibition test was conducted using HEK293/API2-MALT1/NF-κB reporter cells.
The test substance was prepared at a concentration of 10 mM in dimethyl sulfoxide (DMSO) and further diluted with DMSO to each of concentrations of 1000, 300, 100, and 10 µM. The solutions were further diluted 100-fold with DMEM medium containing 10% FBS to prepare test substance solutions.
HEK293/API2-MALT1/NF-κB reporter cells and 293T/CMV reporter cells (used as a negative control) were cultured in DMEM medium containing 10% FBS. Into a 384-well plate (#781080, Greiner), 6,000 cells were seeded in 30 µL per well, and after culturing for 24 hours, 3.3 µL of the adjusted test substance solution was added thereto (final concentrations: 10,000, 1,000, 100, and 10 nM). After culturing for 24 hours at 37°C in a 5% CO2 incubator, 33 µL of One-glo (Promega) was added to each well. After a 5-minute incubation at room temperature, luminescence was detected using a microplate reader (EnVision, PerkinElmer).
Using the measurement data, non-linear regression analysis was performed with the SAS system (SAS Institute Inc.) to estimate IC50.

In the case of `C[C@@H]1CC(C(=O)c2cn(C3CCOCC3)c3nc(-n4nccn4)c(Cl)cc23)C[C@@H](C)N1c1ncc(F)cc1I` (stereo partly drawn) [Example 20, [5-chloro-1-(oxan-4-yl)-6-(2H-1,2,3-triazol-2-yl)-1H-pyrrolo[2,3-b]pyridin-3-yl][(2R,6R)-1-(5-fluoro-3-iodopyridin-2-yl)-2,6-dimethylpiperidin-4-yl]methanone], the IC50 in the assay with SU-DHL-4 cell lines is 6.4 µM; in the assay on OCI-Ly3 cell lines, 480 nM; in assay [1], 110 nM; in assay [2], 240 nM.

Take `C[C@@H]1CC(C(=O)c2cn([C@H]3CCOC3)c3nc(-n4nccn4)c(Cl)cc23)C[C@@H](C)N1c1ncc(F)cc1I` (stereo partly drawn) [Example 21, {5-chloro-1-[(3S)-oxolan-3-yl]-6-(2H-1,2,3-triazol-2-yl)-1H-pyrrolo[2,3-b]pyridin-3-yl}[(2R,6R)-1-(5-fluoro-3-iodopyridin-2-yl)-2,6-dimethylpiperidin-4-yl]methanone]: the IC50 with SU-DHL-4 cell lines amounted to 9 µM; in the assay on OCI-Ly3 cell lines, 540 nM; in assay [1], 44 nM; in assay [2] it was 310 nM.

`C[C@@H]1CC(C(=O)c2cn([C@@H]3CCOC3)c3nc(-n4nccn4)c(Cl)cc23)C[C@@H](C)N1c1ncc(F)cc1I` (stereo partly drawn) [Example 22, {5-chloro-1-[(3R)-oxolan-3-yl]-6-(2H-1,2,3-triazol-2-yl)-1H-pyrrolo[2,3-b]pyridin-3-yl}[(2R,6R)-1-(5-fluoro-3-iodopyridin-2-yl)-2,6-dimethylpiperidin-4-yl]methanone]: the IC50 with SU-DHL-4 cell lines was found to be 8.9 µM; with OCI-Ly3 cell lines, 530 nM; in assay [1], 70 nM; in assay [2] it was 280 nM.

Regarding `O=C(c1cnn(-c2cccc3c(F)cccc23)c1C(F)(F)F)c1c[nH]c2nc(-n3nccn3)c(Cl)cc12` [Example 23, [5-chloro-6-(2H-1,2,3-triazol-2-yl)-1H-pyrrolo[2,3-b]pyridin-3-yl][1-(5-fluoronaphthalen-1-yl)-5-(trifluoromethyl)-1H-pyrazol-4-yl]methanone], the IC50 was found to be 9.5 µM with SU-DHL-4 cell lines, 870 nM in the assay on OCI-Ly3 cell lines, 19 nM in assay [1] and 190 nM in assay [2].

With `Cn1cc(C(=O)c2cnn(-c3ccnc4sccc34)c2C(F)(F)F)c2cc(Cl)c(-n3nccn3)nc21` [Example 24, [5-chloro-1-methyl-6-(2H-1,2,3-triazol-2-yl)-1H-pyrrolo[2,3-b]pyridin-3-yl][1-(thieno[2,3-b]pyridin-4-yl)-5-(trifluoromethyl)-1H-pyrazol-4-yl]methanone], the IC50 with SU-DHL-4 cell lines turned out to be 9.1 µM; in the assay with OCI-Ly3 cell lines it was 180 nM; in assay [1], 12 nM; in assay [2], 130 nM.

On to `O=C(c1cnn(-c2cncc3sccc23)c1C(F)(F)F)c1cn(C2COC2)c2nc(-n3nccn3)c(Cl)cc12` [Example 25, [5-chloro-1-(oxetan-3-yl)-6-(2H-1,2,3-triazol-2-yl)-1H-pyrrolo[2,3-b]pyridin-3-yl][1-(thieno[2,3-c]pyridin-4-yl)-5-(trifluoromethyl)-1H-pyrazol-4-yl]methanone], for which the IC50 in the assay on SU-DHL-4 cell lines is 9 µM; in the assay with OCI-Ly3 cell lines, 440 nM; in assay [1] it was 19 nM; in assay [2] it was 180 nM.

For the compound `Cn1cc(C(=O)c2cnn(-c3cccn4nccc34)c2C(F)(F)F)c2cc(Cl)c(-n3nccn3)nc21` [Example 27, [5-chloro-1-methyl-6-(2H-1,2,3-triazol-2-yl)-1H-pyrrolo[2,3-b]pyridin-3-yl][1-(pyrazolo[1,5-a]pyridin-4-yl)-5-(trifluoromethyl)-1H-pyrazol-4-yl]methanone], the IC50 in the assay with SU-DHL-4 cell lines stood at 7.2 µM; in the assay on OCI-Ly3 cell lines it was 380 nM; in assay [1], 5.8 nM; in assay [2], 280 nM.

(Values after EP4772507A1, “AZAINDOLE COMPOUND AND MEDICAL DRUG” (Nippon Shinyaku Co., Ltd., priority 2023, dated 2025).)
